Holding throughout (format): in vivo
Assay [1] concerns Blumeria graminis f.sp. tritici. Nature of the assay: Greenhouse wheat powdery mildew (WPM) 2 day curative disease control. Conditions: Table I; adjuvant alone, NOP 1000 ppm, BB-4 0 ppm. The source says: (§1) Greenhouse Evaluations for Fungicidal Efficacy Disease: Wheat powdery mildew (WPM). Pathogen: Blumeria graminis f.sp. tritici Test Procedure: 1. Wheat seed is planted in plastic pots and maintained in the greenhouse. 2. When the primary leaf (wheat) is fully expanded, formulated test compounds and adjuvants are sprayed with a single nozzle overhead track sprayer at a rate of 200 l/ha. Plants are then allowed to air-dry. 3. Inoculation precedes treatment by 2 days in the case of curative evaluations and follows treatment by 3-4 days in case of residual evaluations. For inoculation, plants are set up on greenhouse benches with bottom watering mats and inoculated by dusting them with conidia from powdery mildew infected plants (stock cultures at an age of 10-14 days). Between inoculation and treatment for curative evaluations and between treatment and inoculation for residual evaluations, plants are maintained in the greenhouse with bottom watering. 4. Disease on the primary leaf (wheat) as percent leaf area with disease symptoms/signs is evaluated about 7 days after inoculation. In the case of wheat, the tips and bases of the leaves are excluded from the evaluation. Percent disease control is then calculated by the following is formula: [formula] Formulation, Reference Compounds and Controls: 1. Formulated compounds are diluted using deionized water. 2. […]

Assay [2] shares this test system. Nature of the assay: Greenhouse wheat powdery mildew (WPM) 4 day residual disease control. To be noted: adjuvant alone, NOP 1000 ppm, BB-4 0 ppm.
Description: as §1

Assay [3] has the same test system. Nature of the assay: Greenhouse wheat powdery mildew (WPM) antisporulation test. Conditions: Table III; adjuvant alone, NOP 1000 ppm, BB-4 0 ppm. Set-up: key: +++: complete (no spore release); ++: strong; +: moderate; none. The source says:
Greenhouse Evaluations for Fungicidal Efficacy Disease: Wheat powdery mildew (WPM). Pathogen: Blumeria graminis f.sp. tritici Test Procedure: 1. Wheat seed is planted in plastic pots and maintained in the greenhouse. 2. When the primary leaf (wheat) is fully expanded, formulated test compounds and adjuvants are sprayed with a single nozzle overhead track sprayer at a rate of 200 l/ha. Plants are then allowed to air-dry. 3. Inoculation precedes treatment by 2 days in the case of curative evaluations and follows treatment by 3-4 days in case of residual evaluations. For inoculation, plants are set up on greenhouse benches with bottom watering mats and inoculated by dusting them with conidia from powdery mildew infected plants (stock cultures at an age of 10-14 days). Between inoculation and treatment for curative evaluations and between treatment and inoculation for residual evaluations, plants are maintained in the greenhouse with bottom watering. In antisporulation tests, inoculation preceeds compound application by three days. Scale for Anti-Sporulation Effect: +++=complete (no spore release); ++=strong; +=moderate; o=none.

Regarding `CCCCCCCCN1CCCC1=O` [NOP, N-octylpyrrolidone], the “WPM 2 day Curative Disease Control (%)” value in assay [1] worked out at 14%. The “WPM 4 day Residual Disease Control (%)” value in assay [2] (Table I) came to 9%; in assay [2] (Table III), 0%. For the same molecule, the “WPM Antisporulation Effect” value in assay [3] is “o”.
